Results: patent US5225436A, “Aryl substituted naphthalene derivatives” (Schering Corporation, priority 1991, dated 1993)
Where two headings read alike, the source gives them in different places.

Legend:
[1] = system: anaphylactic bronchospasm (antigen-induced SRS-A mediated bronchoconstriction); assay: Inhibition of anaphylactic bronchospasm in sensitized guinea pigs; assay type: in vivo, guinea pig; details: Cavia porcellus, iv, 0.25 h; for inhibition in vivo at 10 mg/kg: read-out: % Inhibition of anaphylactic bronchospasm
Procedure: The anti-allergy method of this invention is identified by tests which measure a compound's inhibition of anaphylactic bronchospams-in sensitized guinea pigs having antigen-induced SRS-A mediated bronchoconstriction. Allergic bronchospams was measured in actively sensitized guinea pigs by a modification of the procedure of Konzett and Rossler, Arch. Exptl. Pathol. Pharmakol., 194, pp. 71-74 (1940). Male Hartley guinea pigs were sensitized with 5 mg ovalbumin injected ip and 5 mg injected sc in 1 ml saline on day 1 and 5 mg ovalbumin injected ip on day 4. The sensitized animals were used 3-4 weeks later. To measure anaphylactic bronchospasm, sensitized guinea pigs were fasted overnight and the following morning were anesthetized with 0.9 ml/kp ip dialurethane. The trachea and jugular vein were cannulated and the animals were ventilated by a Harvard rodent respirator. A side arm to the tracheal cannula was connected to a Harvard pressure transducer to obtain a continuous measure of intratracheal pressure. An increase in intratracheal pressure was taken as a measure of bronchoconstriction. Each guinea pig was injected iv with 1 mg/kg propranolol, 5 mg/kg indomethacin and 2 mg/kg mepyramine given together in a volume of […]. Fifteen minutes later, the animals were challenged with antigen (0.5 percent ovalbumin) delivered as an aerosol generated from a DeVilbiss Model 65 ultrasonic nebulizer and delivered through the tracheal cannula for 30 seconds. Bronchoconstriction was measured as the peak increase in intratracheal pressure occurring within 15 minutes after antigen challenge.

5-lipoxygenase = biological target: T1, 5-lipoxygenase (Mus musculus, UniProt P48999); assay: 5-Lipoxygenase assay (murine mast cell clone MC-9); assay type: cell-based; details: MC9, 5 min, MC-9 cell
T1 construct: The IL-3-dependent murine mast cell clone, MC-9, was used to test the effects; endogenous in cells; host or cells: MC-9 (IL-3-dependent murine mast cell clone)
T1 sequence (P48999 1-674): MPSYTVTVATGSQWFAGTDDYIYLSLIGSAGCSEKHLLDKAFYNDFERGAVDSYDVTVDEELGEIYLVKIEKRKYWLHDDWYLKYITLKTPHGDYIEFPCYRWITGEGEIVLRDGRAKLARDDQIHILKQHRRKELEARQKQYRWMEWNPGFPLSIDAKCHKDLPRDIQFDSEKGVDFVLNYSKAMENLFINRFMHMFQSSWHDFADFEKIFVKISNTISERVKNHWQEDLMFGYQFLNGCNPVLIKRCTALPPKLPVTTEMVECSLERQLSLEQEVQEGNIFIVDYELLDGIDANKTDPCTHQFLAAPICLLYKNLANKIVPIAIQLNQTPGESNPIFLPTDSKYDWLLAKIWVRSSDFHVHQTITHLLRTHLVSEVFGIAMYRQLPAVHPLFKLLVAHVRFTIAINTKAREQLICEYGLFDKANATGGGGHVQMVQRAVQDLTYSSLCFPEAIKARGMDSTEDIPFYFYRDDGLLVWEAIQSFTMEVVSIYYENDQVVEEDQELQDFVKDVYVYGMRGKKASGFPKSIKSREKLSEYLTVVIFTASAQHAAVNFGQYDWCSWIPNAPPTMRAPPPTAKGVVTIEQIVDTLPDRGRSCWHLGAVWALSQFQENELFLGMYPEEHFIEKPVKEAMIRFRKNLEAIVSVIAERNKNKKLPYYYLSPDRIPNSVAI
Procedure: The IL-3-dependent murine mast cell clone, MC-9, was used to test the effects of representative compounds of the invention on lipoxygenase activity. The MC-9 cell line was grown in suspension culture (0.4 to 1.2×10^6 cells/ml) in RPMI 1640 medium (Gibco) with 10% fetal bovine serum (Hyclone) and 2-5% conconavalin-A conditioned supernatant (Musch et. al., (1985) Prostagandins 29, 405-4307. Cells were harvested, washed twice by centrifugation, and resuspended in a Ca^++ -free HEPES buffer (25 mM HEPES, 125 mM NaCl, 2.5 mM KCl 0.7 mM MgCl2, 0.5 mM EGTA and 10 mM glucose at pH 7.4).
MC-9 cells (0.39 ml at 7.5×10^6 cells/ml) were preincubated with dimethylsulfoxide (DMSO) vehicle with or without test compound (1 ul) for 4 minutes then incubated for 5 minutes with [^14 C] arachidonic acid (Amersham, 59 Ci/mole) at a 9 uM final concentration, and A23187 (Calbiochem) at a 1 uM final concentration was added in 10 ul of water:ethanol (9:1). The reaction was stopped by addition of methanol (0.4 ml), and cellular debris was removed by centrifugation. Aliquots (250 ul) of the incubations were run on a Waters two pump HPLC system fitted with a Waters C18, 10 u 8×100 mm u-Bondapak radial compression column and C18 "Guard Pak". The column was initially eluted at 3 ml/min with water:methanol:acetic acid (67:33:0.08) containing 1 mM EDTA adjusted to pH 6.0 with ammonium hydroxide (Pump A). At 4 minutes, a linear gradient to reach 100% methanol (Pump B) at 9 minutes was established. Between 13 and 14 minutes, methanol was exchanged for the initial eluting solvent and by 19 minutes the column had been reequilibrated for the next sample. The effluent was analyzed by a continuous flow radioactivity monitor (model ROMONA-D) interfaced with a Hewlett Packard Lab Automation System for quantitation of radioactive products. These were predominantly leukotriene C4 (LTC4) which eluted at 6 minutes, and 5-hydroxyeicosatetraenoic acid (5-HETE) which eluted at 11 minutes (Musch et. al., supra).

[2] = system: SRS-A / leukotriene release from antigen-challenged, sensitized guinea pig lung; assay: Inhibition of SRS-A (leukotriene) release from antigen-challenged, sensitized guinea pig lung; assay type: cell-based; details: Cavia porcellus
Source text: The anti-allergy method of this invention is identified by tests which measure a compound's inhibition of leukotriene release in sensitized guinea pigs. Sensitized guinea pigs are killed by a blow to the head and the lungs removed and cleaned of visible connective tissue, trachea and large blood vessels. The lungs from individual animals are sliced into fragments approximately 1 mm in thickness using a McIlwain tissue chopper and then washed with oxygenated Tyrode's buffer. Weighed aliquots (approximately 400 mg wet weight) of lung are transferred into vials containing 2 ml of fresh Tyrode's solution (containing 10 mM cysteine) and incubated in the presence or absence of test compound for 12 min at 37° C. The tissues are then challenged with 20 μg ovalbumin/ml (final concentration) and incubated for 15 min. To measure leukotriene release, an aliquot of supernatant fluid is extracted with 4 volumes of 100% ethanol. After removal of the precipitated protein, the clear fluid is dried under a stream of N2 gas. The leukotriene content is measured by a radioimmunoassay using [^3 H]LTC4 and antiserum obtained from New England Nuclear. The cross-reactivity of the antiserum for LTD4 is 55%. Percent inhibition of lekotriene release is calculated by comparing for each lung the release in the presence of the test compound to that in the absence of test compound. Representative compounds of the invention at a relative dose of 50 μM of tissue are found to inhibit leukotriene release in the test procedure as indicated below in Table 1: […]

| inhibition at 5 µM (5-lipoxygenase; read-out: % Inhibition 5-HETE) [%] | inhibition at 5 µM (5-lipoxygenase; read-out: % Inhibition LTC4) [%] | Compound | also measured |
| --- | --- | --- | --- |
| – | – | CN(C)C(=O)Oc1cc(OC(=O)N(C)C)c2c(c1)C(C)(C)C(c1ccc(OC(=O)N(C)C)c(OC(=O)N(C)C)c1)=CC2=O | inhibition in vivo at 10 mg/kg [1]: 10% |
| 5 | 32 | COc1cc(OC)c2c(c1)C(C)(C)C(c1ccc(OC)c(OC)c1)CC2O (stereo not drawn) | – |
| – | – | COc1cc(OC)c2c(c1)C(C)(C)C(c1ccc(OC)c(OC)c1)CC2=NOC(=O)C(C)(C)C (stereo not drawn) | inhibition in vivo at 10 mg/kg ([1]; Dose 10 mpk): 20% |
| 0 | 8 | COc1cc(OC)c2c(c1)C(C)(C)C(c1ccc(OC)c(OC)c1)CC2(C)O (stereo not drawn) | – |
| – | – | CCOc1cc(OC)cc2c1C(=NO)CC(c1ccc(OC)c(OC)c1)C2(C)C (stereo not drawn) | inhibition in vivo at 3 mg/kg ([1]; Dose 3 mpk): 25% |
| – | – | CC1(C)c2cc(O)cc(O)c2C(=O)CC1c1ccc(O)c(O)c1 (stereo not drawn) [drawing 79 [R3/R4=O; E,G,P,L=OH; J=H; db no]] | inhibition at 2 µM (5-lipoxygenase; dose 2 μm, read-out: % Inhibition 5-HETE): 0%; inhibition at 50 µM [2]: 67% |
| 35 | 53 | COc1cc(OC)c2c(c1)C(C)(C)C(c1ccc(OC)c(OC)c1)CC2 (stereo not drawn) | inhibition at 50 µM [2]: 5% |

| Compound | inhibition at 5 µM (5-lipoxygenase; read-out: % Inhibition 5-HETE) [%] | inhibition at 5 µM (5-lipoxygenase; read-out: % Inhibition LTC4) [%] | also measured |
| --- | --- | --- | --- |
| CC1(C)c2cc(O)cc(O)c2CCC1c1ccc(O)c(O)c1 (stereo not drawn) | 55 | 52 | inhibition at 10 µM ([2]; Dose 10 μm): 16% |
